# Measurements as given in patent US9204645B2, “Insecticidal aromatic amides” (BAYER INTELLECTUAL PROPERTY GMBH, priority 2011, dated 2015).
# Key:
# [1] = test system: greenhouse red spider mite (Tetranychus urticae); assay: Tetranychus urticae drench test, OP-resistant, systemic treatment (TETRUR sys.); assay type: in vivo; details: soil, 336 h, 14 dat
# Experimental: Tetranychus urticae—Drench Test, OP-resistant, systemic treatment (TETRUR sys.)
# • Solvent: 7 parts by weight of dimethylformamide • Emulsifier: 2 parts by weight of alkylaryl polyglycol ether
# (§1) To produce a suitable preparation of active compound, 1 part by weight of active compound is mixed with the stated amounts of solvent and emulsifier, and the concentrate is diluted with water to the desired concentration. If the addition of ammonium salts or/and penetrants is required, these are in each case added in a concentration of 1000 ppm to the solution of the preparation.
# Bean plants (Phaseolus vulgaris) which are heavily infested by all stages of the greenhouse red spider mite (Tetranychus urticae) are watered with an active compound preparation of the desired concentration.
# (§2) After the desired period of time, the effect in % is determined. 100% means that all of the spider mites have been killed; 0% means that none of the spider mites have been killed.
# [2] = test system: greenhouse red spider mite (Tetranychus urticae); assay: Tetranychus urticae spray test, OP-resistant (TETRUR), bean plants; assay type: in vivo; details: 168 h, 7 dat
# Experimental: Tetranychus urticae—Spray Test, OP-resistant (TETRUR) • Solvent: 7 parts by weight of dimethylformamide • Emulsifier: 2 parts by weight of alkylaryl polyglycol ether
# as §1, with “diluted with emulsifier-containing water to” for “diluted with water to”
# Bean plants (Phaseolus vulgaris) which are heavily infested by all stages of the greenhouse red spider mite (Tetranychus urticae) are sprayed with an active compound preparation of the desired concentration.
# as §2
Structure (SMILES),inhibition at 20 ppm [1] [%],inhibition at 20 ppm [2] [%]
CC(=O)NCc1cc(NC(=O)c2c(C(F)(F)F)c(C(F)(F)C(F)(F)F)nn2C)ccc1F [Example 13],90,30
"CCNC(=O)c1cc(NC(=O)c2c(C(F)(F)F)c(C(F)(F)C(F)(F)F)nn2C)ccc1Cl [Example Ik-66, reference compound]",30,0
